The target of one test is T1, human GIPR (Homo sapiens, UniProt P48546).
T1 construct: expressed in transfected cells; crude membranes
T1 sequence (P48546 22-466): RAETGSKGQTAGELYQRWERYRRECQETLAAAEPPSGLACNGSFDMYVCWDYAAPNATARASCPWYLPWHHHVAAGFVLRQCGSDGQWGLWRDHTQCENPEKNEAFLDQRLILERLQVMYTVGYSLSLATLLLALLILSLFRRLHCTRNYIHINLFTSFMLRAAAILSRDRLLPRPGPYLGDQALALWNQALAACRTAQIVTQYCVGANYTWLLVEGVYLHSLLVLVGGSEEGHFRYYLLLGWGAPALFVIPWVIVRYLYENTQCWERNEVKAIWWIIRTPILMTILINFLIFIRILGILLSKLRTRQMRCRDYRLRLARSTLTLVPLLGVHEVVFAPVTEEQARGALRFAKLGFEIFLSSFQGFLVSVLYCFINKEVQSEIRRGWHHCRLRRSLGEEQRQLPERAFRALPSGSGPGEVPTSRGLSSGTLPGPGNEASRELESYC
The test is described as follows: [125I]-GIP binding, SPA with WGA beads, 0.1% bacitracin. As to conditions: geometric mean, read-out: hGIPR Ki. In short, it runs like this:
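Ki values are geometric means (SEM, n independent days), derived from four-parameter nonlinear regression of IC50. Membranes came from hGIPR-expressing CHO cells.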

For the next test, the target named is T2, human GcgR (Homo sapiens, UniProt P47871).
T2 construct: expressed in transfected cells; crude membranes
Put plainly: [125I]-Glucagon binding, SPA with WGA beads, 0.1% bacitracin. As to conditions: geometric mean, read-out: hGcgR Ki. In short, it runs like this:
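SPA competition binding with WGA beads on crude membranes from HEK293 cells stably expressing hGcgR. Buffer: 25 mM HEPES pH 7.4, 2.5 mM CaCl2, 1 mM MgCl2, 0.1% bacitracin, 0.003% Tween-20; 10-point 3-fold dilutions, NSB with 1 μM Gcg.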

*1 amine or outer side, *2 acyl side, *3 side chain or, on linkers, in order; H or OH if unused. Where a SMILES comes first, the peptide text is derived from it. Side-chain parts run from the residue outwards. [ ]: non-standard residue; d: D form. The star is where a group is joined. C20 diacid = O=C(O)CCCCCCCCCCCCCCCCCCC(=O)*; αMePhe(2-F) = C[C@](N)(Cc1ccccc1F)C(=O)O; γGlu = O=C(O)[C@H](CCC(=O)[*:2])N[*:1]; 4Pal = N[C@@H](Cc1ccncc1)C(=O)O; αMeL = CC(C)C[C@](C)(N)C(=O)O; Orn = NCCC[C@H](N)C(=O)O; AEEA = NCCOCCOCC(=O)O; Aib = CC(C)(N)C(=O)O Where only a bound is given, the exact number is not on record here.

A word on the Ki: it is a dissociation constant, usually derived from enzyme kinetics or from competition with a known ligand.

T2 sequence (P47871 26-477): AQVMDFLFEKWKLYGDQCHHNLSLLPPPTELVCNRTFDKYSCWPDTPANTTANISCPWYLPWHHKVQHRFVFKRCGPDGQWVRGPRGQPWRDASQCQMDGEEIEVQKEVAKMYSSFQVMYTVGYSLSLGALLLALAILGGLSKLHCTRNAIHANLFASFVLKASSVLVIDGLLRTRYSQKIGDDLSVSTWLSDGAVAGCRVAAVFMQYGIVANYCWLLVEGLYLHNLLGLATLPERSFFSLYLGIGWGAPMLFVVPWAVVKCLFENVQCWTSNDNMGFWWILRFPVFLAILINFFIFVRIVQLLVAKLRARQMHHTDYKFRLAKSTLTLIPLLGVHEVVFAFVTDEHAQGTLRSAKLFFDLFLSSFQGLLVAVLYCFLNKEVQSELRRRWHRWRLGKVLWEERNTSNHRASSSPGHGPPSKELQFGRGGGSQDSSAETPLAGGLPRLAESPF

As to `CC[C@H](C)[C@H](NC(=O)[C@H](CO)NC(=O)[C@H](Cc1ccc(O)cc1)NC(=O)[C@H](CC(=O)O)NC(=O)[C@H](CO)NC(=O)[C@@H](NC(=O)[C@](C)(Cc1ccccc1F)NC(=O)[C@@H](NC(=O)CNC(=O)[C@H](CCC(=O)O)NC(=O)C(C)(C)NC(=O)[C@@H](N)Cc1ccc(O)cc1)[C@@H](C)O)[C@@H](C)CC)C(=O)N[C@@H](C)C(=O)N[C@@H](CC(C)C)C(=O)N[C@@H](CC(=O)O)C(=O)N[C@@H](CCCCN)C(=O)N[C@H](C(=O)N[C@@H](Cc1c[nH]cn1)C(=O)N[C@@H](CCC(N)=O)C(=O)NC(C)(C)C(=O)N[C@@H](CC(=O)O)C(=O)N[C@@H](Cc1ccccc1)C(=O)N[C@H](C(=O)N[C@@H](CCC(=O)O)C(=O)N[C@@H](Cc1ccncc1)C(=O)N[C@@H](CCCCNC(=O)COCCOCCNC(=O)COCCOCCNC(=O)CC[C@H](NC(=O)CCCCCCCCCCCCCCCCCCC(=O)O)C(=O)O)C(=O)N[C@@H](CC(C)C)C(=O)N[C@@H](CCC(=O)O)C(=O)N[C@@H](CCC(N)=O)C(=O)NCC(=O)N1CCC[C@H]1C(=O)N[C@@H](CO)C(=O)N[C@@H](CO)C(=O)NCC(=O)N[C@@H](C)C(=O)N1CCC[C@H]1C(=O)N1CCC[C@H]1C(=O)N1CCC[C@H]1C(=O)N[C@@H](CO)C(N)=O)C(C)C)[C@@H](C)CC` [Example 114] (H-Y[Aib]EGT[αMePhe(2-F)]ISDYSIALDKIHQ[Aib]DFVE[4Pal]K([AEEA-AEEA-γGlu-C20 diacid])LEQGPSSGAPPPS-NH2), the Ki was 0.121 nM on human GIPR and more than 971 nM on human GcgR.

Take `CC[C@H](C)[C@H](NC(=O)[C@H](CCCCN)NC(=O)[C@H](CC(=O)O)NC(=O)[C@H](CC(C)C)NC(=O)[C@](C)(CC(C)C)NC(=O)[C@@H](NC(=O)[C@H](CO)NC(=O)[C@H](Cc1ccc(O)cc1)NC(=O)[C@H](CC(=O)O)NC(=O)[C@H](CO)NC(=O)[C@@H](NC(=O)[C@H](Cc1ccccc1)NC(=O)[C@@H](NC(=O)CNC(=O)[C@H](CCC(=O)O)NC(=O)C(C)(C)NC(=O)[C@@H](N)Cc1ccc(O)cc1)[C@@H](C)O)[C@@H](C)CC)[C@@H](C)CC)C(=O)N[C@@H](CCCNC(=N)N)C(=O)N[C@@H](CCC(N)=O)C(=O)NC(C)(C)C(=O)N[C@@H](CC(=O)O)C(=O)N[C@@H](Cc1ccccc1)C(=O)N[C@H](C(=O)N[C@@H](CCC(=O)O)C(=O)N[C@@H](Cc1ccc(O)cc1)C(=O)N[C@@H](CCCCNC(=O)COCCOCCNC(=O)COCCOCCNC(=O)CC[C@H](NC(=O)CCCCCCCCCCCCCCCCCCC(=O)O)C(=O)O)C(=O)N[C@@H](CC(C)C)C(=O)N[C@@H](CCC(=O)O)C(=O)NCC(=O)NCC(=O)N1CCC[C@H]1C(=O)N[C@@H](CO)C(=O)N[C@@H](CO)C(=O)NCC(=O)N[C@@H](C)C(=O)N1CCC[C@H]1C(=O)N1CCC[C@H]1C(=O)N1CCC[C@H]1C(=O)N[C@@H](CO)C(N)=O)C(C)C` [Example 115] (H-Y[Aib]EGTFISDYSI[αMeL]LDKIRQ[Aib]DFVEYK([AEEA-AEEA-γGlu-C20 diacid])LEGGPSSGAPPPS-NH2): the inhibitory constant (Ki) on human GIPR worked out at 0.0997 nM; on human GcgR, 373 nM.

On to `CC[C@H](C)[C@H](NC(=O)[C@H](CCCN)NC(=O)[C@H](CC(=O)O)NC(=O)[C@H](CC(C)C)NC(=O)[C@](C)(CC(C)C)NC(=O)[C@@H](NC(=O)[C@H](CO)NC(=O)[C@H](Cc1ccc(O)cc1)NC(=O)[C@H](CC(=O)O)NC(=O)[C@H](CO)NC(=O)[C@@H](NC(=O)[C@H](Cc1ccccc1)NC(=O)[C@@H](NC(=O)CNC(=O)[C@H](CCC(=O)O)NC(=O)C(C)(C)NC(=O)[C@@H](N)Cc1ccc(O)cc1)[C@@H](C)O)[C@@H](C)CC)[C@@H](C)CC)C(=O)N[C@@H](CCCNC(=N)N)C(=O)N[C@@H](CCC(N)=O)C(=O)NC(C)(C)C(=O)N[C@@H](CC(=O)O)C(=O)N[C@@H](Cc1ccccc1)C(=O)N[C@H](C(=O)N[C@@H](CCC(=O)O)C(=O)N[C@@H](Cc1ccc(O)cc1)C(=O)N[C@@H](CCCCNC(=O)COCCOCCNC(=O)COCCOCCNC(=O)CC[C@H](NC(=O)CCCCCCCCCCCCCCCCCCC(=O)O)C(=O)O)C(=O)N[C@@H](CC(C)C)C(=O)N[C@@H](CCC(=O)O)C(=O)NCC(=O)NCC(=O)N1CCC[C@H]1C(=O)N[C@@H](CO)C(=O)N[C@@H](CO)C(=O)NCC(=O)N[C@@H](C)C(=O)N1CCC[C@H]1C(=O)N1CCC[C@H]1C(=O)N1CCC[C@H]1C(=O)N[C@@H](CO)C(N)=O)C(C)C` [Example 116] (H-Y[Aib]EGTFISDYSI[αMeL]LD[Orn]IRQ[Aib]DFVEYK([AEEA-AEEA-γGlu-C20 diacid])LEGGPSSGAPPPS-NH2), for which the Ki on human GIPR was determined as 0.166 nM; on human GcgR, 178 nM.

With `CC[C@H](C)[C@H](NC(=O)[C@H](CCCCN)NC(=O)[C@H](CC(=O)O)NC(=O)[C@H](CC(C)C)NC(=O)[C@](C)(CC(C)C)NC(=O)[C@@H](NC(=O)[C@H](CO)NC(=O)[C@H](Cc1ccc(O)cc1)NC(=O)[C@H](CC(=O)O)NC(=O)[C@H](CO)NC(=O)[C@@H](NC(=O)[C@H](Cc1ccccc1)NC(=O)[C@@H](NC(=O)CNC(=O)[C@H](CCC(=O)O)NC(=O)C(C)(C)NC(=O)[C@@H](N)Cc1ccc(O)cc1)[C@@H](C)O)[C@@H](C)CC)[C@@H](C)CC)C(=O)N[C@@H](Cc1c[nH]cn1)C(=O)N[C@@H](CCC(N)=O)C(=O)NC(C)(C)C(=O)N[C@@H](CC(=O)O)C(=O)N[C@@H](Cc1ccccc1)C(=O)N[C@H](C(=O)N[C@@H](CCC(=O)O)C(=O)N[C@@H](Cc1ccc(O)cc1)C(=O)N[C@@H](CCCCNC(=O)COCCOCCNC(=O)COCCOCCNC(=O)CC[C@H](NC(=O)CCCCCCCCCCCCCCCCCCC(=O)O)C(=O)O)C(=O)N[C@@H](CC(C)C)C(=O)N[C@@H](CCC(=O)O)C(=O)N[C@@H](C)C(=O)NCC(=O)N1CCC[C@H]1C(=O)N[C@@H](CO)C(=O)N[C@@H](CO)C(=O)NCC(=O)N[C@@H](C)C(=O)N1CCC[C@H]1C(=O)N1CCC[C@H]1C(=O)N1CCC[C@H]1C(=O)N[C@@H](CO)C(N)=O)C(C)C` [Example 117] (H-Y[Aib]EGTFISDYSI[αMeL]LDKIHQ[Aib]DFVEYK([AEEA-AEEA-γGlu-C20 diacid])LEAGPSSGAPPPS-NH2), the values for the Ki on human GIPR and at human GcgR were 0.0722 nM and 685 nM, respectively.

As to `CC[C@H](C)[C@H](NC(=O)[C@H](CO)NC(=O)[C@H](Cc1ccc(O)cc1)NC(=O)[C@H](CC(=O)O)NC(=O)[C@H](CO)NC(=O)[C@@H](NC(=O)[C@](C)(Cc1ccccc1F)NC(=O)[C@@H](NC(=O)CNC(=O)[C@H](CCC(=O)O)NC(=O)C(C)(C)NC(=O)[C@@H](N)Cc1ccc(O)cc1)[C@@H](C)O)[C@@H](C)CC)C(=O)N[C@@H](CC(C)C)C(=O)N[C@@H](CC(C)C)C(=O)N[C@@H](CC(=O)O)C(=O)N[C@@H](CCCCN)C(=O)N[C@H](C(=O)N[C@@H](Cc1c[nH]cn1)C(=O)N[C@@H](CCC(N)=O)C(=O)NC(C)(C)C(=O)N[C@@H](CC(=O)O)C(=O)N[C@@H](Cc1ccccc1)C(=O)N[C@H](C(=O)N[C@@H](CCC(=O)O)C(=O)N[C@@H](Cc1ccncc1)C(=O)N[C@@H](CCCCNC(=O)COCCOCCNC(=O)COCCOCCNC(=O)CC[C@H](NC(=O)CCCCCCCCCCCCCCCCCCC(=O)O)C(=O)O)C(=O)N[C@@H](CC(C)C)C(=O)N[C@@H](CCC(=O)O)C(=O)NCC(=O)NCC(=O)N1CCC[C@H]1C(=O)N[C@@H](CO)C(=O)N[C@@H](CO)C(=O)NCC(=O)N[C@@H](C)C(=O)N1CCC[C@H]1C(=O)N1CCC[C@H]1C(=O)N1CCC[C@H]1C(=O)N[C@@H](CO)C(N)=O)C(C)C)[C@@H](C)CC` [Example 119] (H-Y[Aib]EGT[αMePhe(2-F)]ISDYSILLDKIHQ[Aib]DFVE[4Pal]K([AEEA-AEEA-γGlu-C20 diacid])LEGGPSSGAPPPS-NH2), the Ki at human GIPR was 0.129 nM; on human GcgR, 68.8 nM.

Take `CC[C@H](C)[C@H](NC(=O)[C@H](CO)NC(=O)[C@H](Cc1ccc(O)cc1)NC(=O)[C@H](CC(=O)O)NC(=O)[C@H](CO)NC(=O)[C@@H](NC(=O)[C@](C)(Cc1ccccc1F)NC(=O)[C@@H](NC(=O)CNC(=O)[C@H](CCC(=O)O)NC(=O)C(C)(C)NC(=O)[C@@H](N)Cc1ccc(O)cc1)[C@@H](C)O)[C@@H](C)CC)C(=O)N[C@@H](CC(C)C)C(=O)N[C@@H](CC(C)C)C(=O)N[C@@H](CC(=O)O)C(=O)N[C@@H](CCCCN)C(=O)N[C@H](C(=O)N[C@@H](Cc1c[nH]cn1)C(=O)N[C@@H](CCC(N)=O)C(=O)NC(C)(C)C(=O)N[C@@H](CC(=O)O)C(=O)N[C@@H](Cc1ccccc1)C(=O)N[C@H](C(=O)N[C@@H](CCC(=O)O)C(=O)N[C@@H](Cc1ccncc1)C(=O)N[C@@H](CCCCNC(=O)COCCOCCNC(=O)COCCOCCNC(=O)CC[C@H](NC(=O)CCCCCCCCCCCCCCCCCCC(=O)O)C(=O)O)C(=O)N[C@@H](CC(C)C)C(=O)N[C@@H](CCC(=O)O)C(=O)N[C@@H](C)C(=O)NCC(=O)N1CCC[C@H]1C(=O)N[C@@H](CO)C(=O)N[C@@H](CO)C(=O)NCC(=O)N[C@@H](C)C(=O)N1CCC[C@H]1C(=O)N1CCC[C@H]1C(=O)N1CCC[C@H]1C(=O)N[C@@H](CO)C(N)=O)C(C)C)[C@@H](C)CC` [Example 120] (H-Y[Aib]EGT[αMePhe(2-F)]ISDYSILLDKIHQ[Aib]DFVE[4Pal]K([AEEA-AEEA-γGlu-C20 diacid])LEAGPSSGAPPPS-NH2): the Ki on human GIPR came to 0.171 nM; at human GcgR, 575 nM.

The values are drawn from patent US12723063B2, “GIPR-agonist compounds” (Eli Lilly and Company, priority 2019, dated 2026).
